This assay addresses Serine-protein kinase ATM (Homo sapiens, UniProt Q13315). Kind of assay: Inhibition of ATM (unknown origin) assessed as ATM-dependent phosphorylation using GST-p53 ser15 as substrate.

Serine-protein kinase ATM, sequence (Q13315 whole entry): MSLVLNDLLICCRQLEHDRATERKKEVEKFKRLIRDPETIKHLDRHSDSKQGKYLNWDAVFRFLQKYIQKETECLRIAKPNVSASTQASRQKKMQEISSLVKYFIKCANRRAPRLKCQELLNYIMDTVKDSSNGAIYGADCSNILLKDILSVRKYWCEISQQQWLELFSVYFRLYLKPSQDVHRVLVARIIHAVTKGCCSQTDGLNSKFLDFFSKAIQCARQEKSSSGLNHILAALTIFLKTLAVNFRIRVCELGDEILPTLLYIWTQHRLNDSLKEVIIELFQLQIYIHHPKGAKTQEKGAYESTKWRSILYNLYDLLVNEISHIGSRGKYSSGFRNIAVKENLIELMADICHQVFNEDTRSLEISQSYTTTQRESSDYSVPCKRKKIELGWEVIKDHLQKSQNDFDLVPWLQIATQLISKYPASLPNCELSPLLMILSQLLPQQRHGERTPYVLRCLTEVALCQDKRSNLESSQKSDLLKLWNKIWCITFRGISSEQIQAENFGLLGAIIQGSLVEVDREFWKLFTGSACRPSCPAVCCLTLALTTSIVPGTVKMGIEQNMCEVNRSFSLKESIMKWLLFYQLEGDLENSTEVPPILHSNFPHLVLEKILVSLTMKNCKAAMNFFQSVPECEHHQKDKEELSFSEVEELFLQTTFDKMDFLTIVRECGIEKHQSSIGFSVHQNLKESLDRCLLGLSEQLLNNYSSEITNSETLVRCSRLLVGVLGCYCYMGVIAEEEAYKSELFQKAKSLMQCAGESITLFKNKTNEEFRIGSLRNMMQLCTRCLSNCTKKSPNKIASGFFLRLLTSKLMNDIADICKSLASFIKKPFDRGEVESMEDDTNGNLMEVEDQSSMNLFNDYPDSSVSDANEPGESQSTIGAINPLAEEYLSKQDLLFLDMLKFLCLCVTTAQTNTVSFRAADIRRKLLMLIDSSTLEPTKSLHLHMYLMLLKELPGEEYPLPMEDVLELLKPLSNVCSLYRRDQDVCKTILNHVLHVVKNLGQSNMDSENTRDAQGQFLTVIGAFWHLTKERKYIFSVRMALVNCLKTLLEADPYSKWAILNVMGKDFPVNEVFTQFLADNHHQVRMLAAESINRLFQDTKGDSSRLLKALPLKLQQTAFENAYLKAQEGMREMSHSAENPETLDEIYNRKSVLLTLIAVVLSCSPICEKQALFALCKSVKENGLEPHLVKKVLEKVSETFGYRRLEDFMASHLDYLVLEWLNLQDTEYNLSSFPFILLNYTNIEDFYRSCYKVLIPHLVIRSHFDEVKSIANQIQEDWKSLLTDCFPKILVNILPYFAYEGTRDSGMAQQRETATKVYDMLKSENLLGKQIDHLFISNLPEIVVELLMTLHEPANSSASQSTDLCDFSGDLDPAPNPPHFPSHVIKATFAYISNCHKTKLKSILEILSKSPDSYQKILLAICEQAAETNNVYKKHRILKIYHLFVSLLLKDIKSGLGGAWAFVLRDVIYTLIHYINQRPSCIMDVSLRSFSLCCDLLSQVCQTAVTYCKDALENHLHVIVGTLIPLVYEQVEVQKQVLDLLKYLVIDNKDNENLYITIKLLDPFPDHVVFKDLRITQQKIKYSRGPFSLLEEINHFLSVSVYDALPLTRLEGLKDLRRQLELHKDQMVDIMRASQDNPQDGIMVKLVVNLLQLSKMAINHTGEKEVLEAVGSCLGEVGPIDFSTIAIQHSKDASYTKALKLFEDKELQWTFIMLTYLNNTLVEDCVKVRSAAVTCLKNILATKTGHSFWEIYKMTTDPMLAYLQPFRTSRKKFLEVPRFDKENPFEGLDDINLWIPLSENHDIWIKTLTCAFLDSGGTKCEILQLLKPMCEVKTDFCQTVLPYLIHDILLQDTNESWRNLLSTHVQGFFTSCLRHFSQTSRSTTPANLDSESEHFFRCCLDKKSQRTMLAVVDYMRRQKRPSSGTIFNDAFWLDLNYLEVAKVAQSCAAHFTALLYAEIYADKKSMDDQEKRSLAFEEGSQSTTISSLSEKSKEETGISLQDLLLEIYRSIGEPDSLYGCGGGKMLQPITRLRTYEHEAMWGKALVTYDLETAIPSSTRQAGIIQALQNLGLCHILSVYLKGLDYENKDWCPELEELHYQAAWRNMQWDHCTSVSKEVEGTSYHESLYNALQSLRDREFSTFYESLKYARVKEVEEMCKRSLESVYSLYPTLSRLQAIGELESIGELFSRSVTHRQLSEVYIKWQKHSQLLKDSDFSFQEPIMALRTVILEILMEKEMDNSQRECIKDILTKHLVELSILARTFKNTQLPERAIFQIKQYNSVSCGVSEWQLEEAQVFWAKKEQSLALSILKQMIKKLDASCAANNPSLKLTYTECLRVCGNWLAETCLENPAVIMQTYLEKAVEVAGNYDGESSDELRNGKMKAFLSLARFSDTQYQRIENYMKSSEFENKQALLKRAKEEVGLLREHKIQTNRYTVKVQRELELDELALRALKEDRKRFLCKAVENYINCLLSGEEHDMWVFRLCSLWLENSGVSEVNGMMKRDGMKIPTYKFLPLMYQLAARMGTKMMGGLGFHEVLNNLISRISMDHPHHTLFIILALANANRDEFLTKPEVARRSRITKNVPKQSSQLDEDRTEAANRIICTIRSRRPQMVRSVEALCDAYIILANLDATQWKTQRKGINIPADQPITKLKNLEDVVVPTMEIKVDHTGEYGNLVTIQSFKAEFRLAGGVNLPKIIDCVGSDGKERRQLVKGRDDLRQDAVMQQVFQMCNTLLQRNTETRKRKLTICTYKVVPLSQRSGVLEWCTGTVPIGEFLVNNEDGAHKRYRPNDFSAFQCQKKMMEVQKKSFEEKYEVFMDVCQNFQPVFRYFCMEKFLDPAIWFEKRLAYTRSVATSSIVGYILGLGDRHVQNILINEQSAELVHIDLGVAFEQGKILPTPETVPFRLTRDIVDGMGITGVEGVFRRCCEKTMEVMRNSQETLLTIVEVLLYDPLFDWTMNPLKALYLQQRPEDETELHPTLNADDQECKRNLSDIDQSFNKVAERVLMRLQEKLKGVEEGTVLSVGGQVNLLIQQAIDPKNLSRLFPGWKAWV

For `CC(C)n1c(=O)n(C)c2cnc3cc(F)c(-c4ccc(OCCCN5CCCCC5)nc4)cc3c21` [Azd-1390], the IC50 is 0.09 nM.
